This is an account of results in patent publication US11673878B2, “Benzazepine derivatives” (OTSUKA PHARMACEUTICAL CO., LTD., priority 2017, dated 2023).

Series [1] in a line: Metabolic stability test in human liver microsomes. The series is classed as in vitro ADME. As to conditions: pH 7.4; human liver microsomes 1 mg/mL, test compound 1 μmol/L, NADPH and NADH, 37° C., n = 4; read-out: CLint (μL/min/mg) mean ± SD. The protocol:
Reaction System and Incubation
According to methods of Obach and Jones, et al. (methods described in R. S. Obach, Drug Metab. Dispos. 1999 (27): 1350-1359 and H. Jones and J. B. Houston, Drug Metab. Dispos. 2004 (32): 973-982), the reaction system shown below was prepared and metabolic stabilities of test compounds (the present compounds and, tolvaptan) were evaluated using the reaction system shown below. Human liver microsomes purchased from Corning Inc. were used. Test compounds were dissolved in DMSO at the concentration of 10 mmol/L and then diluted with acetonitrile to prepare a 100 μmol/L solution for use in the test. The 100 μmol/L solutions were used in the experiment.
Human liver microsome 1 mg/mL
Co-factor (NADPH and NADH) 1 mmol/L each
Magnesium chloride 5 mmol/L
100 mmol/L Potassium phosphate buffer (pH 7.4)
The reaction mixture without co-factors was pre-incubated at 37° C. for 5 minutes, and then the reaction was initiated by the addition of the co-factors. The mixture was incubated for 0, 5, 10, 20, 30, and 60 minutes after the addition of the co-factors. An aliquot of the reaction mixture was removed and added to a methanol solution containing an internal standard (IS) and mixed to terminate the reaction at each predetermined time.
After the reaction was terminated, the mixture was separated by centrifugation and the supernatant was injected into a liquid chromatograph-tandem mass spectrometer (LC-MS/MS) to measure unchanged substances remained in the reaction system. The mass spectrometer was operated in a positive ion mode of the electrospray ionization (ESI) method. Unchanged substances and the IS were detected by multiple reaction monitoring (MRM) transitions using selected precursor and product ions set.
The remaining ratios of test compounds were calculated by the following equation. Remaining ratio=(Peak area ratio of a test compound to IS at t minutes after incubation)÷(Peak area ratio of a test compound to IS at 0 minute)
The slope of X-axis (the incubation time) and Y-axis (logarithm of the remaining ratio) was calculated by a non-linear least square method. Hepatic intrinsic clearance (CLint) was calculated by the following equation. CLint(μL/min/mg)=−(Slope(min^−1))÷1(mg/mL)×1000

Series [2] is described as follows: Pharmacokinetics study in mice, single oral dose. The series is classed as in vivo. The conditions noted are these: mouse; male ICR mice, single-dose oral administration of 30 mg/kg, plasma. The protocol:
A pharmacokinetics (PK) study was performed using male ICR mice to compare the oral absorption properties of the present compounds with tolvaptan. A test compound was suspended in a 1% hydroxypropyl methylcellulose (HPMC) solution to be adjusted to the concentration of 4.5 mg/mL. The present compounds were used as the forms obtained in the above examples (including the amorphous form) for a test compound, or used after spray drying, if needed.
Male ICR mice (7-week old) were freely fed food and water and weighed on an electronic scale. Then, a test compound was orally administered at the dose of 30 mg/kg […]. After the oral administration, blood was collected from the abdominal vena cava under isoflurane anesthesia using a 1 mL heparinized syringe with a 26 G injection needle. Blood was separated by centrifugation at 4° C., 3000 rpm for 10 minutes to give plasma in a supernatant. The plasma concentration of a test compound was measured by LC-MS/MS.
The following PK parameters were calculated using the mean plasma concentrations of unchanged substances obtained from two animals at each time point.
Cmax: Maximum plasma concentration (μg/mL)
tmax: Time-to-maximum plasma concentration (h)
AUCinf: Area under the plasma concentration-time curve from administration to infinite time (μg h/mL)

The target in series [3] is T1, rat vasopressin V1a receptor (Rattus norvegicus, UniProt P30560).
T1 construct: V1a receptor fractions derived from rat hepatic membrane; from tissue; host or cells: rat liver (hepatic membrane)
T1 sequence (P30560 whole entry): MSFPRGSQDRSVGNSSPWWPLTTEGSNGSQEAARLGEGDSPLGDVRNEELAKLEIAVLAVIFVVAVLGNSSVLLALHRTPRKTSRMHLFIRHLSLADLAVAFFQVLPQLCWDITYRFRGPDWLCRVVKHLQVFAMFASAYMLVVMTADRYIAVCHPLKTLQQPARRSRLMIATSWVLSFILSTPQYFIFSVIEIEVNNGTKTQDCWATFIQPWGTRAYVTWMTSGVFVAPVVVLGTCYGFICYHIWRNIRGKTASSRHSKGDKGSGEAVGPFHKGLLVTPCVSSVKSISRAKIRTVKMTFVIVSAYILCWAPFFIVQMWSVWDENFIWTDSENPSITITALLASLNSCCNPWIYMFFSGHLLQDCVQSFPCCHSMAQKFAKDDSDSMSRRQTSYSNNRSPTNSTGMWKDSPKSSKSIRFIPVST
The series is described as follows: Binding inhibition test for rat V1a receptor (3H-AVP, rat hepatic membrane). The conditions noted are these: inhibition of 3H-AVP binding, rat hepatic membrane V1a receptor fractions, 4° C., 2 hours; read-out: Binding affinity rV1a (IC50). The protocol:
(§1) Various compounds were studied in binding affinities for vasopressin receptors with an indicator of binding inhibition of rat vasopressin V1a receptor and vasopressin V2 receptor of ^3H-arginine vasopressin (AVP) (NET800, available from PerkinElmer Inc., Life Sciences).
(1) Binding Inhibition Test for Rat V1a Receptor (rV1aR)
50 μg of V1a receptor fractions derived from rat hepatic membrane were diluted with a reaction solution (100 mM Tris-HCl (pH 8.0), 0.1% BSA, 5 mM MgCl2, 1 mM EDTA) and added to each well of a 96-well plate. A compound was added to each well in various concentrations (0.3 nM to 100 nM), and ^3H-AVP was added thereto in the range of 1 nM to 3 nM. Reactions were carried out at 4° C. for 2 hours on the plate. Via receptor fractions were collected with a 96-well glass filter (Unifilter GF/B) after the reactions and washed with a washing solution (10 mM Tris-HCl (pH 8.0), 5 mM MgCl2, 1 mM EDTA) three times, and then the radioactivity of ^3H-AVP was measured with a scintillation counter.
(§2) ^3H-AVP binding rate in the presence of a compound was calculated by the following equation. Binding rate (%)=(B−NSB)/(TB−NSB)×100 (B: Binding amount of ^3H-AVP in the presence of each compound, NSB: Binding amount of ^3H-AVP in the presence of 1 μM of unlabeled AVP, TB: Binding amount of ^3H-AVP in the absence of 1 μM of unlabeled AVP)

The target of series [4] is T2, rat vasopressin V2 receptor (Rattus norvegicus, UniProt Q00788).
T2 construct: expressed in transfected cells; host or cells: CHO cells (rV2R-CHO)
T2 sequence (Q00788 whole entry): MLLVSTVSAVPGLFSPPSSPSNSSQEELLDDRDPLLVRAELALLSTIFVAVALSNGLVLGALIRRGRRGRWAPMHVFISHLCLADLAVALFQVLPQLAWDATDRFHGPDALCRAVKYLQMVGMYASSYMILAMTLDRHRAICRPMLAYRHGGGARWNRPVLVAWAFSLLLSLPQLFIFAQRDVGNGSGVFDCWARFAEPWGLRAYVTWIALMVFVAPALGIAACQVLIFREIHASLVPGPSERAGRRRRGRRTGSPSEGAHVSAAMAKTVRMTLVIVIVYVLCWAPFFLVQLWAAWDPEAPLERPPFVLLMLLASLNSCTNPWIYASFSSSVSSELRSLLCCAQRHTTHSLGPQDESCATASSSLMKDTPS
The series is described as follows: Binding inhibition test for rat V2 receptor (3H-AVP, rV2R-CHO cells). As to conditions: inhibition of 3H-AVP binding, 4° C., 2 hours, read-out: Binding affinity rV2 (IC50). How it is done:
as §1
(2) Binding Inhibition Test for Rat V2 Receptor (rV2R)
Rat V2 receptor-expressed CHO cells (rV2R—CHO) were incubated on 10% FBS-containing DMEM/F12 in a 24-well plate, and each cell was washed with D-PBS twice. A reaction solution (D-PBS containing 0.1% BSA and 0.05% sodium azide) comprising a compound in various concentrations (0.3 nM to 100 nM) was added to each well, and a certain amount of ^3H-AVP was added thereto (100-fold dilution). Reactions were carried out at 4° C. for 2 hours on the plate. Then, each well was washed with D-PBS twice and 0.1N NaOH was added to each well. The cells were collected, and the radioactivity of ^3H-AVP was measured with a scintillation counter.
as §2

Broadly, the AUC(0-inf) is total exposure, with the tail of the curve extrapolated. A higher AUC(0-inf) goes with more exposure. By Cmax is commonly meant the highest concentration seen after dosing. As usually defined, the Tmax is the time at which the peak concentration occurs. By IC50 is commonly meant the concentration needed to halve the response being measured. On to `O=C(Nc1ccc(C(=O)N2CCC(F)(F)[C@](O)(CO)c3cc(Cl)ccc32)cn1)c1cc(F)ccc1-c1ccccc1F` [Example 165, N-{5-[(5R)-7-chloro-4,4-difluoro-5-hydroxy-5-(hydroxymethyl)-2,3,4,5-tetrahydro-1H-1-benzazepine-1-carbonyl]pyridin-2-yl}-2′,4-difluoro-[1,1′-biphenyl]-2-carboxamide], for which the microsomal CLint at 1 μmol/L in series [1] came out at 3.61 ± 2.43 µL/min/mg. In series [2], the AUC(0-inf) is 41500 ng·h/mL, the peak concentration (Cmax) was found to be 7720 ng/mL and the Tmax amounted to 1 h. Besides, the IC50 in series [3] is 1.7 nM. The 50% inhibitory concentration (IC50) in series [4] was determined as 3.4 nM.
